From ChEMBL document CHEMBL4507268 (2021)

Key:
Conditions in all cases: Compound concentration 1.0 uM
[1] = molecular target: Mitogen-activated protein kinase 14 (Homo sapiens) (UniProt Q16539)
[2] = molecular target: MAPK/MAK/MRK overlapping kinase (Homo sapiens) (UniProt Q9UQ07)
[3] = molecular target: Mast/stem cell growth factor receptor Kit (Homo sapiens) (UniProt P10721)
[4] = molecular target: T1, Tyrosine-protein kinase Mer (Homo sapiens) (UniProt Q12866)
T1 sequence (whole entry): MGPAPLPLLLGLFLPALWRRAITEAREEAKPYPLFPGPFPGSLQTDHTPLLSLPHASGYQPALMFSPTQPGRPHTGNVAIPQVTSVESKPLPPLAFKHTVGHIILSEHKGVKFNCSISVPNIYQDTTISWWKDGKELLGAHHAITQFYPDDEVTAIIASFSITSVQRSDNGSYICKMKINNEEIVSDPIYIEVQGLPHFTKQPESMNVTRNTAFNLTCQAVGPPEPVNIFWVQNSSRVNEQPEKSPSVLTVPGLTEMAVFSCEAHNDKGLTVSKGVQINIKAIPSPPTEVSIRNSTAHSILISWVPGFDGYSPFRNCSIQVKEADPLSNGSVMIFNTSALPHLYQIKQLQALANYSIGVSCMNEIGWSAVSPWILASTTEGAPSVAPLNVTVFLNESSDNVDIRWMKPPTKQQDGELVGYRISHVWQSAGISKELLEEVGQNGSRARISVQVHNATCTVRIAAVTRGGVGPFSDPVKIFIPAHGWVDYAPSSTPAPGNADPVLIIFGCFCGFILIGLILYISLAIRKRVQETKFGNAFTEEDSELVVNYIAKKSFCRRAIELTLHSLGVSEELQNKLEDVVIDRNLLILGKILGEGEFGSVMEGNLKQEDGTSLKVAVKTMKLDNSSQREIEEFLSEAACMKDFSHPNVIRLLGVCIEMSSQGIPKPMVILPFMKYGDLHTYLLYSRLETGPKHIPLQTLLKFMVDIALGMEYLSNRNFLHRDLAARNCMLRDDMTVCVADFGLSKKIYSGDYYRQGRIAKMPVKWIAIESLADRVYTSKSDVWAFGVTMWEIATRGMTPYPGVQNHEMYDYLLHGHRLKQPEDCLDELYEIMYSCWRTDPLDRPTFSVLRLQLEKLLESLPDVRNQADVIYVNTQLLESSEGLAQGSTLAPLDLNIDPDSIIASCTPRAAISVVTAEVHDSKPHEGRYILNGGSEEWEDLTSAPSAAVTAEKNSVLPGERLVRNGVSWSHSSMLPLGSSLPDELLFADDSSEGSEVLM

[5] = molecular target: Testis-specific serine/threonine-protein kinase 4 (Homo sapiens) (UniProt Q6SA08)
[6] = molecular target: Serine/threonine-protein kinase PLK3 (Homo sapiens) (UniProt Q9H4B4)
[7] = molecular target: T2, Serine/threonine-protein kinase 3 (Homo sapiens) (UniProt Q13188)
T2 sequence (whole entry): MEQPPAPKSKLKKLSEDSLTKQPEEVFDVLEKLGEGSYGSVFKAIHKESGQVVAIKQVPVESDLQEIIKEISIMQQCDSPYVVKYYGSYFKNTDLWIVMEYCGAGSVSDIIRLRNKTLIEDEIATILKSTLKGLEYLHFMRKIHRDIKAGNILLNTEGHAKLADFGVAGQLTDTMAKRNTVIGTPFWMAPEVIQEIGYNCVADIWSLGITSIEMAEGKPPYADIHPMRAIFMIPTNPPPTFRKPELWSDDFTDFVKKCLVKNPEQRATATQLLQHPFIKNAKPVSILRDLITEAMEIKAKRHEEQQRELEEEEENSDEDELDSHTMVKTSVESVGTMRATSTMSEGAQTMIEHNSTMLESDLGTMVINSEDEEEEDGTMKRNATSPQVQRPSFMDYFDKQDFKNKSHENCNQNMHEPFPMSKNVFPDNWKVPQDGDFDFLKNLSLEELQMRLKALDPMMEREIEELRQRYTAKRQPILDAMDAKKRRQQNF

[8] = molecular target: T3, Tyrosine-protein kinase ITK/TSK (Homo sapiens) (UniProt Q08881)
T3 sequence (whole entry): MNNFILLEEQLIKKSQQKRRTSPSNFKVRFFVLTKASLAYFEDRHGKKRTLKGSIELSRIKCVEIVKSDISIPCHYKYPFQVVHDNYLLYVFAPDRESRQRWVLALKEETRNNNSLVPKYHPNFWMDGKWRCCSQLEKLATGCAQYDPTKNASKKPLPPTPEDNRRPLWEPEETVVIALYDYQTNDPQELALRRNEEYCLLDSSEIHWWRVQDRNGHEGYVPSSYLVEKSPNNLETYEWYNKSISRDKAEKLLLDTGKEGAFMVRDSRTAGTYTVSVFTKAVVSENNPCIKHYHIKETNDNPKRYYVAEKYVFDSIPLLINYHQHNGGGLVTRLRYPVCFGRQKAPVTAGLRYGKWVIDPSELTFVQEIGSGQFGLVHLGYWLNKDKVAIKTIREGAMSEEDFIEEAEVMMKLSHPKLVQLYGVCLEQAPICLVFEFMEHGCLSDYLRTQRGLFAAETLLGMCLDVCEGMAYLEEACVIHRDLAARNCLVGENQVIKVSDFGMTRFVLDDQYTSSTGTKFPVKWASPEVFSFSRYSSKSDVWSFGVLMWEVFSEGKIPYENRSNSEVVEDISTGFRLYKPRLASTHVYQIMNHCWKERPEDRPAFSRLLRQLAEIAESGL

Measured: % residual kinase activity

Chain of Mitogen-activated protein kinase 14 (Homo sapiens) (Q16539 whole entry): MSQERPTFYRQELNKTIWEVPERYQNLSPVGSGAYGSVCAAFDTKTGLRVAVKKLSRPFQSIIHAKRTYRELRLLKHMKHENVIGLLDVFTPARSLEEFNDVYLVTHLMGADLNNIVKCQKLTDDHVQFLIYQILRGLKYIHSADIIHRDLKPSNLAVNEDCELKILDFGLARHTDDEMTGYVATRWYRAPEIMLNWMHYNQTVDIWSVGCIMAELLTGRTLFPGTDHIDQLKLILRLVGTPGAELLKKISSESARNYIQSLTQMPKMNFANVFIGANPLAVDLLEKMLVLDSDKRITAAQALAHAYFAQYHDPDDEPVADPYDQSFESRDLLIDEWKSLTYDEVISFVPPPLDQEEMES
Chain of MAPK/MAK/MRK overlapping kinase (Homo sapiens) (Q9UQ07 whole entry): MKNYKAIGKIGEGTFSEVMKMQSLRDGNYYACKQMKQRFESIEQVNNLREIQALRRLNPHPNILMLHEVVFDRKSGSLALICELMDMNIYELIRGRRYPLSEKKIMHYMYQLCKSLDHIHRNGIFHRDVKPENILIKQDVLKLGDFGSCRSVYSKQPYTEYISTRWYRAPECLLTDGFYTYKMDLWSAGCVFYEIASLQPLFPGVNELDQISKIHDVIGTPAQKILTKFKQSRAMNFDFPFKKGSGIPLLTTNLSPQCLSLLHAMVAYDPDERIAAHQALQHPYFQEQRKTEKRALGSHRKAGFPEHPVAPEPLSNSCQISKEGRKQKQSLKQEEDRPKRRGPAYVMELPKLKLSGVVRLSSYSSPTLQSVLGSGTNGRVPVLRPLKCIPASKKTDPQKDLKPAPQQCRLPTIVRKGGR
Chain of Testis-specific serine/threonine-protein kinase 4 (Homo sapiens) (Q6SA08 whole entry): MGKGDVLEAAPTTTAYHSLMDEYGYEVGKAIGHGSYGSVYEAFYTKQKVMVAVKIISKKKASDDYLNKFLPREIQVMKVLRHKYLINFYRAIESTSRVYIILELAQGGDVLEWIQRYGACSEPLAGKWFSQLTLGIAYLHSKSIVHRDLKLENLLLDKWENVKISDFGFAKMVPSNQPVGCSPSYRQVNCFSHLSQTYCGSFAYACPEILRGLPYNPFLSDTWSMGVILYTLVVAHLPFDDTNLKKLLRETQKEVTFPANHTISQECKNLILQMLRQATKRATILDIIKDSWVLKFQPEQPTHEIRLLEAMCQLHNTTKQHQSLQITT
Chain of Serine/threonine-protein kinase PLK3 (Homo sapiens) (Q9H4B4 whole entry, looked up): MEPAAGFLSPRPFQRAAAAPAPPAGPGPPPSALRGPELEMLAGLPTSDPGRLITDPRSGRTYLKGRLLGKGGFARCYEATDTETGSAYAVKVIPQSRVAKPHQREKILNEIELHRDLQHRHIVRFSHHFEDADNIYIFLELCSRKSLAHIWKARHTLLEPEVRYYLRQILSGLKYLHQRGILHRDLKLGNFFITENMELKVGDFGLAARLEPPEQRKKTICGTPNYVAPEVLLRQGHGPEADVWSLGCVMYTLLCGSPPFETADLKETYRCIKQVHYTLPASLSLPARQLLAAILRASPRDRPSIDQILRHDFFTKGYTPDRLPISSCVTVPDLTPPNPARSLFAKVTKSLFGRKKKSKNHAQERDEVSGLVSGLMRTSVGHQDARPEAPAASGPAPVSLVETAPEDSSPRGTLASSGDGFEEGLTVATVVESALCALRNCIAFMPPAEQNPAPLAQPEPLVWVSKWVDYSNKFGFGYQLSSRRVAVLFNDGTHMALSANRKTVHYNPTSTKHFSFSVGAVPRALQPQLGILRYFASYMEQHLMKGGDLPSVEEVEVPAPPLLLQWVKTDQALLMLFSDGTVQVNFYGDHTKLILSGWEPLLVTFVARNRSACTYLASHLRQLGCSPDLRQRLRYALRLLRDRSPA
Chain of Mast/stem cell growth factor receptor Kit (Homo sapiens) (P10721 whole entry): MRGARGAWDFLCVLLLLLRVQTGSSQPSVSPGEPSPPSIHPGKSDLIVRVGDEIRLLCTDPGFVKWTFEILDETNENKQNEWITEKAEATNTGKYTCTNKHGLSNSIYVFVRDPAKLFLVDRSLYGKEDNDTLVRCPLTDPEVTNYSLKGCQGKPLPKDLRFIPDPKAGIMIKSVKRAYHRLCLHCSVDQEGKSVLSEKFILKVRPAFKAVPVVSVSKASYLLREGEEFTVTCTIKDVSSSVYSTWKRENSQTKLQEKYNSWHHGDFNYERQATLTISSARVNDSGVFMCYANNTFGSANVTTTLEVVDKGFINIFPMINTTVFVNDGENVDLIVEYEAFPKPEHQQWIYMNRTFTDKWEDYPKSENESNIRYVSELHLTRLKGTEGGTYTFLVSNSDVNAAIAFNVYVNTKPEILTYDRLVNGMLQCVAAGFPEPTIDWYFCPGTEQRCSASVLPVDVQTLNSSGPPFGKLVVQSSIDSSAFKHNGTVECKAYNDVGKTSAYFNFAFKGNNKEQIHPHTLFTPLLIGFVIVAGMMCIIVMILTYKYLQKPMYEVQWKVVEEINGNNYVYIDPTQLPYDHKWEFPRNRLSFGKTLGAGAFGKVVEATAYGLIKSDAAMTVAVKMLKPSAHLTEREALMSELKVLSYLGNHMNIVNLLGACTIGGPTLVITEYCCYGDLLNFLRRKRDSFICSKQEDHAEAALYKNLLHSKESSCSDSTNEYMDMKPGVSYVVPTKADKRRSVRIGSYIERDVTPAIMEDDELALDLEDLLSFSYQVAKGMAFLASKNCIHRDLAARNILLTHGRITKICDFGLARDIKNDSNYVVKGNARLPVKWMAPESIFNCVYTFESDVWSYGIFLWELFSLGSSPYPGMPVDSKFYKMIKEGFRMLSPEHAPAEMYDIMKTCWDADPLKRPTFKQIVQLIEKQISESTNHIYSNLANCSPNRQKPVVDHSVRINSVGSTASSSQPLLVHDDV

CN1CCN(c2cnc3c(C4CCN(C(=O)c5ccc(OC(F)(F)F)cc5N)CC4)ncnc3c2)CC1 [BAY-885]
inactive: [1] 113% | [2] 94% | [3] 104% | [4] 91% | [5] 115% | [6] 107% | [7] 128% | [8] 105%
